According to publication PMC5937893, “Heat-stable sublingual oxytocin tablets as a potential needle-free approach for preventing postpartum hemorrhage in low-resource settings” (Drug Delivery and Translational Research, 2018):

Experiments:
[1] = design: method as in earlier work; conditions: women, buccal route, levels greater than 1000 IU, induction of labor; ref [10]; cited from earlier work
[2] = in vivo; conditions: female, Yucatan miniature swine, pig, im, 20 IU
Description: (§1) Next, a crossover pharmacokinetic study with 24-h washout was conducted to determine oxytocin plasma levels after SL administration and to compare with the standard IM route in female mini pigs, chosen due to the similarity in oral cavity architecture with humans. Ten anesthetized female, non-pregnant Yucatan miniature swine, Sus scrofa 3 to 5 months old and weighing 15 to 20 kg were administered an oxytocin FDT under the tongue. For the control, mini pigs received 20 IU of oxytocin in a 1 mL IM injection into the right hind limb. […] Blood was collected from both groups at several time points up to 60 min after administration, via previously implanted vascular access ports, and plasma was obtained for analysis. A commercial enzyme-linked immunosorbent assay kit was used to detect oxytocin in the plasma.
(§2) The pharmacokinetic data were derived from ten non-pregnant female Yucatan miniature swine, Sus scrofa, aged 3
(§3) to 5 months, weighing 15 to 20 kg (Sinclair Bio-Resources, LLC, Auxvasse, MO, USA). Ten experimental pigs
(§4) received a sublingual (SL) tablet with 400 IU of oxytocin, and ten received SL tablets with 600 IU oxytocin. Ten
(§5) control pigs received 20 IU of oxytocin in a 1 mL intramuscular (IM) injection.
(§6) Animals were anesthetized with dexmedetomidine (0.04 mg/kg) mixed with midazolam (0.2 mg/kg), and anesthesia […]

[3] = Saliva stability study; type: in vitro ADME; conditions: pooled human saliva, 37 °C, 1 hour, HPLC, content at 1 hour divided by content at time zero, two aliquots per time point
Description: Since the oxytocin FDTs are intended to be administered under the tongue, we confirmed the stability of oxytocin in saliva prior to initiation of the pharmacokinetic study. The FDTs were incubated in pooled human saliva maintained at 37 °C for an hour along with unformulated oxytocin as a control. […]
the resting TEER measurement from the final TEER measurement. A reduction in the TEER indicates increased permeability of oral tissue after treatment.
Disintegration testing: Non-sink method
50, 60, 90 seconds) for complete disintegration. […]
aliquoted into four different vials. […]
immediately. […] The other two
HPLC mobile phase liquid and centrifuged immediately. The supernatants were loaded for HPLC analysis at the […]
1-hour divided by the content at time zero.
Test material Route of administration (IU/animal) Dose administered
Formulation 4 Sublingual 600 1 tablet
Formulation 4 Sublingual 400 1 tablet
Control Intramuscular 20 1 mL of 20 IU/mL
The FDTs were administered […]
once on days 1, 3, 8, 15, and 18. […]
aid in dissolution of the tablet. […]
right hind limb (biceps femoris) once on day 22.

[4] = in vivo
Description: as §1, §2, §3, §4, §5, §6

Cmax [2]: 0.612 ng/mL
Proteolytic degradation of oxytocin in saliva [3]: none to minimal proteolytic degradation
Plasma levels of oxytocin in unanesthetized versus anesthetized pigs [4]: significantly higher
Structure (SMILES): CC[C@H](C)[C@@H]1NC(=O)[C@H](Cc2ccc(O)cc2)NC(=O)[C@@H](N)CSSC[C@@H](C(=O)N2CCC[C@H]2C(=O)N[C@@H](CC(C)C)C(=O)NCC(N)=O)NC(=O)[C@H](CC(N)=O)NC(=O)[C@H](CCC(N)=O)NC1=O [oxytocin]
Adverse events [1]: without any adverse events
